# In US8664226B2, “Compound having 3-heteroarylpyrimidin-4-(3H)-one structure and pharmaceutical preparation containing same” (Kowa Company, Ltd., priority 2009, dated 2014):
# Tests used:
# [1] = target: T1, angiotensin II type 1 receptor (Oryctolagus cuniculus, UniProt P34976); experiment: Angiotensin II antagonistic activity in isolated rabbit blood vessels; settings: angiotensin II (10 nM)-induced contraction of rabbit thoracic aorta ring
# T1 construct: By using a specimen of isolated rabbit blood vessels; from tissue; host or cells: rabbit thoracic aorta ring (New Zealand White, male)
# T1 sequence (P34976 1-359): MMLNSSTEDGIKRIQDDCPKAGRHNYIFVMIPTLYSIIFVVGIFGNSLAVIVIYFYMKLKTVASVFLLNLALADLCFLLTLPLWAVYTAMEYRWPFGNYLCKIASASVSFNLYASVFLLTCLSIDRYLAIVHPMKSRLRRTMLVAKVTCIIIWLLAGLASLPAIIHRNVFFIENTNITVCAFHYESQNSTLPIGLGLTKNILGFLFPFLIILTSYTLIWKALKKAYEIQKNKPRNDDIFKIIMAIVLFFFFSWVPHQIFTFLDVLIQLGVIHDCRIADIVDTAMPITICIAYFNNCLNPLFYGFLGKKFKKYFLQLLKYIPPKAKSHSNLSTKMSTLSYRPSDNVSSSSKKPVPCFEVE
# Procedure, shortened: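 Contraction of isolated rabbit vessel induced by angiotensin II, in a magnus bath at 37° C gassed with 95% O2/5% CO2. Responses expressed as % of the 10 nM angiotensin II contraction without compound, and IC50 calculated from the concentration-response curve.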
# [2] = target: T2, human PPARγ2 (Homo sapiens, UniProt P37231); experiment: PPARγ activation activity, Gal4 chimera luciferase transfection assay using COS7 cells; assay type: cell-based; settings: for EC50: Gal4-human PPARγ2 LBD chimera, luciferase reporter, 16 hours, read-out: EC50
# T2 construct: the amino acids 182 to 505 of human PPARγ2; expressed in transfected cells; host or cells: COS7 cells
# Method: The agonistic activity of the compounds of the invention on PPARγ was measured based on the transfection assay using COS7 cells (DS Pharma Biomedical Co., Ltd., Osaka, Japan), which are the cell line derived from the kidney of the African green monkey. COS7 cells were cultured under 5% CO2 concentration, and DMEM medium containing 10% fetal bovine serum, glutamic acid, and antibiotics was used as a medium.
# As an expression vector, a chimera in which DNA binding domain of Gal4, which is a yeast transcription factor, and ligand binding domain of human PPAR^γ2 are fused, i.e., a fused product between the amino acids 1 to 147 of Gal4 transcription factor and the amino acids 182 to 505 of human PPARγ2, was used. Furthermore, as a reporter vector, a firefly luciferase containing five copies of Gal4 recognition sequence in the promoter region was used. Plasmid transfection to the cells was performed according to a method which uses jetPEI (trade name, manufactured by Funakoshi Co., Ltd., Tokyo, Japan). Furthermore, β-galactosidase expression vector was employed as an internal standard.
# After the transfection of the cells, the medium was replaced with a DMEM medium (containing 1% serum) added with the compound, and the cells were further cultured for 16 hours. After that, the luciferase activity and β-galactosidase activity in the cell lysis solution were measured.
# For the present test, dimethyl sulfoxide (DMSO) was used for dissolution and dilution of the test compounds, and during the cell treatment, the DMSO concentration in DMEM medium (containing 1% serum) was adjusted to 0.1%. As a positive compound, rosiglitazone (trade name, manufactured by ALEXIS Corporation, Switzerland) was used. […] The 50% effective concentration of the test compound (EC50, 50% effect concentration) was calculated by using SAS Preclinical Package Ver5.0 (trade name, manufactured by SAS institute Japan Co., Tokyo, Japan), which is a statistical analysis program.
# T2 sequence (P37231 182-505): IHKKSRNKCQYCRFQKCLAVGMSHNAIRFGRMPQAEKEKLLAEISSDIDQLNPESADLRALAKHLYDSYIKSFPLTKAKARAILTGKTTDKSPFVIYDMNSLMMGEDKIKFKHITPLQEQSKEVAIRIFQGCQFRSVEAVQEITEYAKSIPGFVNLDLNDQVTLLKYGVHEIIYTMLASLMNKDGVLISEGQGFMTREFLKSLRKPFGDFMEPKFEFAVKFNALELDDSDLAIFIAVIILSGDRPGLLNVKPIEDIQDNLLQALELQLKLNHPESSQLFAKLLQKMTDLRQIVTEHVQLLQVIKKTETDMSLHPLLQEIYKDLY
# T2 sequence (P04386 1-147 partner limits assumed): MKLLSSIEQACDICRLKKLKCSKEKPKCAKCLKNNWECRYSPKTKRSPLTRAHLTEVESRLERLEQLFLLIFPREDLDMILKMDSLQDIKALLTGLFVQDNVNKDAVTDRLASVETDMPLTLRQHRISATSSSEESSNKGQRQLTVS
Structure (SMILES),IC50 [1],EC50 ([2]; COS7 cells),"Emax ([2]; COS-7, 16 h, maximum activity strength relative to the maximum activity of rosiglitazone, COS7 cells, read-out: % MAX vs Rosiglitazone)","maximum activity compared with telmisartan ([2]; maximum PPARγ activity, telmisartan 30 to 50% of rosiglitazone under the same condition)"
"CCCCc1nc(C)n(-c2ncc(OCc3ccccc3)cn2)c(=O)c1Cc1ccc(-c2ccccc2-c2nnn[nH]2)cc1 [Example 19, 5-{[2′-(1H-tetrazol-5-yl)biphenyl-4-yl]methyl}-3-[5-(benzyloxy)pyrimidin-2-yl]-6-butyl-2-methylpyrimidin-4 (3H)-one]",0.396 µM,2.55 µM,,
"CCCCc1nc(C)n(-c2ccc(Cl)cn2)c(=O)c1Cc1ccc(-c2ccccc2-c2nnn[nH]2)cc1 [Example 7, 5-{[2′-(1H-tetrazol-5-yl)biphenyl-4-yl]methyl}-6-butyl-3-(5-chloropyridin-2-yl)-2-methylpyrimidin-4(3H)-one]",0.431 µM,1.52 µM,54.6%,the same or greater than that of telmisartan
"CCCCc1nc(C)n(-c2cc3ccccc3cn2)c(=O)c1Cc1ccc(-c2ccccc2-c2nnn[nH]2)cc1 [Example 68, 5-{[2′-(1H-tetrazol-5-yl)biphenyl-4-yl]methyl}-6-butyl-3-(isoquinolin-3-yl)-2-methylpyrimidin-4 (3H)-one]",0.223 µM,2.61 µM,,
"CCCCc1nc(C)n(-c2ncc(OC(C)C)cn2)c(=O)c1Cc1ccc(-c2ccccc2-c2nnn[nH]2)cc1 [Example 23, 5-{[2′-(1H-tetrazol-5-yl)biphenyl-4-yl]methyl}-6-butyl-3-(5-isopropoxypyrimidin-2-yl)-2-methylpyrimidin-4 (3H)-one]",0.022 µM,0.89 µM,,
